Experiments:
Format in all cases: in vivo
[1] = test system: barnyardgrass (Echinochloa crus-galli); assay: Test A preemergence; settings: for Plant response rating, Barnyardgrass: 125 g ai/ha; for Barnyardgrass plant response rating (0 to 100 scale, 0 is no effect, 100 is complete control): 500 g ai/ha, visual injury approx. 10 d
Summary of the method: (§1)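 In a loam soil and sand blend, planted seeds got a preemergence directed soil spray, and young plants at the one- to two-leaf stage, 2–10 cm high, got a postemergence application; ~10 d greenhouse hold; injury rated visually, 0 = none, 100 = complete control.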

Kochia (Kochia scoparia) [2] = assay: Test A preemergence; settings: for Plant response rating, Kochia: 125 g ai/ha; for Kochia plant response rating (0 to 100 scale, 0 is no effect, 100 is complete control): 500 g ai/ha, visual injury approx. 10 d
Summary of the method: as §1

[3] = test system: ryegrass, Italian (Italian ryegrass, Lolium multiflorum); assay: Test A preemergence; settings: Preemergence; for Plant response rating, Ryegrass, Italian: 125 g ai/ha, visual injury after approximately 10 d, 0 to 100 scale where 0 is no effect and 100 is complete control; for Ryegrass, Italian plant response rating (0 to 100 scale, 0 is no effect, 100 is complete control): 500 g ai/ha, visual injury approx. 10 d
Summary of the method: as §1

[4] = test system: giant foxtail (Setaria faberii); assay: Test A preemergence; settings: for Plant response rating, Foxtail, Giant: 125 g ai/ha; for Foxtail, Giant plant response rating (0 to 100 scale, 0 is no effect, 100 is complete control): 500 g ai/ha, visual injury approx. 10 d
Summary of the method: as §1

[5] = test system: ragweed (common ragweed, Ambrosia elatior); assay: Test A preemergence; settings: Preemergence; for Plant response rating, Ragweed: 125 g ai/ha, visual injury after approximately 10 d, 0 to 100 scale where 0 is no effect and 100 is complete control; for Ragweed plant response rating (0 to 100 scale, 0 is no effect, 100 is complete control): 500 g ai/ha, visual injury approx. 10 d
Summary of the method: as §1

[6] = test system: pigweed (Amaranthus retroflexus); assay: Test A preemergence; settings: Preemergence; for Plant response rating, Pigweed: 125 g ai/ha, visual injury after approximately 10 d, 0 to 100 scale where 0 is no effect and 100 is complete control; for Pigweed plant response rating (0 to 100 scale, 0 is no effect, 100 is complete control): 500 g ai/ha, visual injury approx. 10 d
[7] = test system: barnyardgrass (Echinochloa crus-galli); assay: Test B flooded paddy test; settings: Flood, 250 g ai/ha; 0 to 100 scale where 0 is no effect and 100 is complete control; 13 to 15 d
Summary of the method: (§2)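 Flooding to 3 cm over soil accompanied treatment, which consisted of adding compound to the standing water around 2-leaf plants; depth was then maintained. Visual assessment versus controls followed at 13 to 15 d (scale 0–100, 0 meaning no effect).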

rice (Oryra sativa) = assay: Test B flooded paddy test; settings: Flood, 250 g ai/ha; 0 to 100 scale where 0 is no effect and 100 is complete control; 13 to 15 d
Summary of the method: as §2

[8] = test system: ducksalad (Heteranthera limosa); assay: Test B flooded paddy test; settings: Flood, 250 g ai/ha; 0 to 100 scale where 0 is no effect and 100 is complete control; 13 to 15 d
Summary of the method: as §2

[9] = test system: sedge, umbrella (small-flower umbrella sedge, Cyperus difformis); assay: Test B flooded paddy test; settings: Flood, 250 g ai/ha; 0 to 100 scale where 0 is no effect and 100 is complete control; 13 to 15 d
Summary of the method: as §2

[10] = test system: barnyardgrass (Echinochloa crus-galli); assay: Test A postemergence
Summary of the method: as §1

corn (Zea mays) = assay: Test A postemergence
Summary of the method: as §1

Kochia (Kochia scoparia) [11] = assay: Test A postemergence
Summary of the method: as §1

[12] = test system: blackgrass (Alopecurus myosuroides); assay: Test A postemergence
Summary of the method: as §1

[13] = test system: ryegrass, Italian (Italian ryegrass, Lolium multiflorum); assay: Test A postemergence
Summary of the method: as §1

[14] = test system: giant foxtail (Setaria faberii); assay: Test A postemergence
Summary of the method: as §1

[15] = test system: Galium (catchweed bedstraw, Galium aparine); assay: Test A postemergence
Summary of the method: as §1

[16] = test system: ragweed (common ragweed, Ambrosia elatior); assay: Test A postemergence
Summary of the method: as §1

[17] = test system: pigweed (Amaranthus retroflexus); assay: Test A postemergence
Summary of the method: as §1

[18] = test system: wheat (Triticum aestivum); assay: Test A postemergence
Summary of the method: as §1

[19] = preemergence, 0 to 100 scale (0 no effect, 100 complete control)
[20] = 125 g ai/ha, postemergence, visual injury rating on 0 to 100 scale (0 no effect, 100 complete control), approx. 10 d
[21] = 500 g ai/ha, postemergence, 0 to 100 scale, 0 no effect, 100 complete control
[22] = Postemergence, 500 g ai/ha, 0 to 100 scale where 0 is no effect and 100 is complete control
[23] = Preemergence, visual injury after approximately 10 d, 0 to 100 scale where 0 is no effect and 100 is complete control
[24] = 125 g ai/ha, postemergence, visual rating after approx. 10 d, 0 to 100 scale (0 no effect, 100 complete control)

## CCc1ccc(C2CNC(=O)C2C(=O)Nc2ccccc2S(C)(=O)=O)cc1 (stereo not drawn) [Compound 468]
[1]; [19]
  Plant response rating, Barnyardgrass: 0
[1]; Preemergence
  Barnyardgrass plant response rating (0 to 100 scale, 0 is no effect, 100 is complete control): 20
Kochia (Kochia scoparia) [2]; [19]
  Plant response rating, Kochia: 40
Kochia (Kochia scoparia) [2]; Preemergence
  Kochia plant response rating (0 to 100 scale, 0 is no effect, 100 is complete control): 80
[3]
  Plant response rating, Ryegrass, Italian: 0
  Ryegrass, Italian plant response rating (0 to 100 scale, 0 is no effect, 100 is complete control): 0
[4]; [19]
  Plant response rating, Foxtail, Giant: 0
[4]; Preemergence
  Foxtail, Giant plant response rating (0 to 100 scale, 0 is no effect, 100 is complete control): 80
[5]
  Plant response rating, Ragweed: 0
  Ragweed plant response rating (0 to 100 scale, 0 is no effect, 100 is complete control): 70
[6]
  Plant response rating, Pigweed: 0
  Pigweed plant response rating (0 to 100 scale, 0 is no effect, 100 is complete control): 50
[7]
  Plant response rating, Barnyardgrass: 35
Rice (Oryra sativa)
  Plant response rating, Rice: 0
[8]
  Plant response rating, Ducksalad: 85
[9]
  Plant response rating, Sedge, Umbrella: 0
[10]; [20]
  Barnyardgrass plant response rating: 0
[10]; [21]
  Plant response rating, Barnyardgrass: 30
Corn (Zea mays); [20]
  Corn plant response rating: 0
Corn (Zea mays); [21]
  Plant response rating, Corn: 0
Kochia (Kochia scoparia) [11]; [20]
  Kochia plant response rating: 0
Kochia (Kochia scoparia) [11]; [22]
  Plant response rating, Kochia: 20
[12]; [20]
  Blackgrass plant response rating: 0
[12]; [21]
  Plant response rating, Blackgrass: 20
[13]; [20]
  Ryegrass, Italian plant response rating: 0
[13]; [22]
  Plant response rating, Ryegrass, Italian: 0
[14]; [20]
  Foxtail, Giant plant response rating: 0
[14]; [22]
  Plant response rating, Foxtail, Giant: 0
[15]; [20]
  Galium plant response rating: 20
[15]; [22]
  Plant response rating, Galium: 30
[16]; [20]
  Ragweed plant response rating: 0
[16]; [22]
  Plant response rating, Ragweed: 0
[17]; [20]
  Pigweed plant response rating: 0
[17]; [22]
  Plant response rating, Pigweed: 0
[18]; [20]
  Wheat plant response rating: 0
[18]; [22]
  Plant response rating, Wheat: 20

## C=CCN1CC(c2cccc(C(F)(F)F)c2)C(C(=O)Nc2ccccc2F)C1=O (stereo not drawn) [Compound 605]
[1]; [23]
  Plant response rating, Barnyardgrass: 30
[1]; Preemergence
  Barnyardgrass plant response rating (0 to 100 scale, 0 is no effect, 100 is complete control): 70
Kochia (Kochia scoparia) [2]; [23]
  Plant response rating, Kochia: 0
Kochia (Kochia scoparia) [2]; Preemergence
  Kochia plant response rating (0 to 100 scale, 0 is no effect, 100 is complete control): 0
[3]
  Plant response rating, Ryegrass, Italian: 0
  Ryegrass, Italian plant response rating (0 to 100 scale, 0 is no effect, 100 is complete control): 20
[4]; [23]
  Plant response rating, Foxtail, Giant: 90
[4]; Preemergence
  Foxtail, Giant plant response rating (0 to 100 scale, 0 is no effect, 100 is complete control): 90
[5]
  Plant response rating, Ragweed: 0
  Ragweed plant response rating (0 to 100 scale, 0 is no effect, 100 is complete control): 0
[6]
  Plant response rating, Pigweed: 0
  Pigweed plant response rating (0 to 100 scale, 0 is no effect, 100 is complete control): 0
[7]
  Plant response rating, Barnyardgrass: 0
Rice (Oryra sativa)
  Plant response rating, Rice: 0
[8]
  Plant response rating, Ducksalad: 50
[9]
  Plant response rating, Sedge, Umbrella: 0
[10]; [24]
  Plant response rating, Barnyardgrass: 0
[10]; [22]
  Plant response rating, Barnyardgrass: 80
Corn (Zea mays); [24]
  Plant response rating, Corn: 0
Corn (Zea mays); [22]
  Plant response rating, Corn: 0
Kochia (Kochia scoparia) [11]; [24]
  Plant response rating, Kochia: 0
Kochia (Kochia scoparia) [11]; [22]
  Plant response rating, Kochia: 0
[12]; [24]
  Plant response rating, Blackgrass: 0
[12]; [22]
  Plant response rating, Blackgrass: 20
[13]; [24]
  Plant response rating, Ryegrass, Italian: 0
[13]; [22]
  Plant response rating, Ryegrass, Italian: 0
[14]; [24]
  Plant response rating, Foxtail, Giant: 20
[14]; [22]
  Plant response rating, Foxtail, Giant: 80
[15]; [24]
  Plant response rating, Galium: 0
[15]; [22]
  Plant response rating, Galium: 0
[16]; [24]
  Plant response rating, Ragweed: 0
[16]; [22]
  Plant response rating, Ragweed: 0
[17]; [24]
  Plant response rating, Pigweed: 0
[17]; [22]
  Plant response rating, Pigweed: 0
[18]; [24]
  Plant response rating, Wheat: 0
[18]; [22]
  Plant response rating, Wheat: 30

Reference: patent US12077503B2, “Substituted cyclic amides and their use as herbicides” (FMC CORPORATION, priority 2015, dated 2024)
